Reference: patent US9067871B2, “Aminotetraline derivatives, pharmaceutical compositions containing them, and their use in therapy” (ABBVIE DEUTSCHLAND GMBH & CO KG, priority 2009, dated 2015)
pKi: −log10 of the molar value. Structures can show the parent of a compound that is named as a salt.

The compounds below were run against human GlyT1c transporter (Homo sapiens (Human), UniProt P48067) (assay: Radioligand binding assay using recombinant CHO cell membranes expressing human GlyT1). Details: human GlyT1c-expressing CHO cell membranes; hydrochloride; read-out: radioligand binding Kiapp.
Chain of human GlyT1c transporter (P48067 whole entry): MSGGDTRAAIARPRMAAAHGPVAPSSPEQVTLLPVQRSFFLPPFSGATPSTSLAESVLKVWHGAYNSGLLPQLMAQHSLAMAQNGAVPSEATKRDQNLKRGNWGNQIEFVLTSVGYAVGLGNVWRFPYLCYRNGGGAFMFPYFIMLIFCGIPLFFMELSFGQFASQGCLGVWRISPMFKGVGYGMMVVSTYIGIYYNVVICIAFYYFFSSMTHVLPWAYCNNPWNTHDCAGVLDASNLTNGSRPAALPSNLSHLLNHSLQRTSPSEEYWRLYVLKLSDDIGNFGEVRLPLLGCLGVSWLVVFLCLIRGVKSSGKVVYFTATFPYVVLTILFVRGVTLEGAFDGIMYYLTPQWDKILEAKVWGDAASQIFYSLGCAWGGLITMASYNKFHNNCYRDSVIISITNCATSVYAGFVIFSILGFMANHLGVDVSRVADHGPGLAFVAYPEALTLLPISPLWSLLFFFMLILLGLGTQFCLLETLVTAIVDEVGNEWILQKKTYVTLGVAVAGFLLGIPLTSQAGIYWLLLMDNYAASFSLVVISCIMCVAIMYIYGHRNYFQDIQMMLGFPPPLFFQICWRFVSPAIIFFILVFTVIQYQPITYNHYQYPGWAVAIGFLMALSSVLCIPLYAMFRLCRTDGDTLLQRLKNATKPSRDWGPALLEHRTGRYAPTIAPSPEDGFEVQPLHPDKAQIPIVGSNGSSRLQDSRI
Text: 2. Radioligand binding assays using recombinant CHO cell membranes expressing human GlyT1: […]

| pKi | SMILES |
| --- | --- |
| ≥ 8.00 | Cn1cnc(S(=O)(=O)NCCOc2ccc3c(c2)C(Cc2ccccc2)C(N2CCCC2)CC3)c1 (stereo not shown) [Example 116, N-(2-(8-Benzyl-7-(pyrrolidin-1-yl)-5,6,7,8-tetrahydronaphthalen-2-yloxy)ethyl)-1-methyl-1H-imidazole-4-sulfonamide hydrochloride] |
| ≥ 7.00 | O=S(=O)(CC1CC1)NCCOc1ccc2c(c1)C(Cc1ccccc1)C(N1CCC1)CC2 (stereo not shown) [Example 142, N-(2-{[7-(Azetidin-1-yl)-8-benzyl-5,6,7,8-tetrahydronaphthalen-2-yl]oxy}ethyl)-1-cyclopropylmethanesulfonamide hydrochloride] |

Same assay, conditions: human GlyT1c-expressing CHO cell membranes; read-out: radioligand binding Kiapp

| pKi | SMILES |
| --- | --- |
| ≥ 7.00 | CN(CCOc1ccc2c(c1)C(Cc1ccccc1)C(N1CCC1)CC2)S(=O)(=O)c1cnn(C)c1 (stereo not shown) [Example 112, 1-Methyl-1H-pyrazole-4-sulfonic acid [2-(7-azetidin-1-yl-8-benzyl-5,6,7,8-tetrahydronaphthalen-2-yloxy)-ethyl]-methyl-amide hydrochloride] |
| ≥ 7.00 | CCN(CCOc1ccc2c(c1)C(Cc1ccccc1)C(N)CC2)S(=O)(=O)c1cnn(C)c1 (stereo not shown) [Example 113, N-(2-(7-Amino-8-benzyl-5,6,7,8-tetrahydronaphthalen-2-yloxy)ethyl)-N-ethyl-1-methyl-1H-pyrazole-4-sulfonamide hydrochloride] |
| ≥ 6.00 | CCCCCS(=O)(=O)NCCOc1ccc2c(c1)C(Cc1ccc(Cl)c(Cl)c1)C(N)CC2 (stereo not shown) [Example 114, N-(2-(7-Amino-8-(3,4-dichlorobenzyl)-5,6,7,8-tetrahydronaphthalen-2-yloxy)ethyl)pentane-1-sulfonamide hydrochloride] |
| ≥ 7.00 | CCCS(=O)(=O)NCCOc1ccc2c(c1)C(Cc1ccc(F)c(Cl)c1)C(N)CC2 (stereo not shown) [Example 120, N-(2-{[7-Amino-8-(3-chloro-4-fluorobenzyl)-5,6,7,8-tetrahydronaphthalen-2-yl]oxy}ethyl)propane-1-sulfonamide hydrochloride] |
| ≥ 8.00 | NC1CCc2ccc(OCCNS(=O)(=O)CC3CC3)cc2C1Cc1ccccc1 (stereo not shown) [Example 121, N-(2-{[7-Amino-8-benzyl-5,6,7,8-tetrahydronaphthalen-2-yl]oxy}ethyl)-1-cyclopropylmethanesulfonamide hydrochloride] |
| ≥ 5.00 | NC1CCc2ccc(OCCNC(=O)CC3CC3)cc2C1Cc1ccc(Cl)c(Cl)c1 (stereo not shown) [Example 122, N-(2-{[7-Amino-8-(3,4-dichlorobenzyl)-5,6,7,8-tetrahydronaphthalen-2-yl]oxy}ethyl)-2-cyclopropylacetamide hydrochloride] |
| ≥ 5.00 | NC1CCc2ccc(OCCNC(=O)c3ccccc3)cc2C1Cc1ccc(Cl)c(Cl)c1 (stereo not shown) [Example 123, N-(2-{[7-Amino-8-(3,4-dichlorobenzyl)-5,6,7,8-tetrahydronaphthalen-2-yl]oxy}ethyl)benzamide hydrochloride] |
| ≥ 6.00 | CCN(CCOc1ccc2c(c1)C(Cc1ccccc1)C(N1CCCC1)CC2)S(=O)(=O)c1cnn(C)c1 (stereo not shown) [Example 124, N-(2-{[8-Benzyl-7-(pyrrolidin-1-yl)-5,6,7,8-tetrahydronaphthalen-2-yl]oxy}ethyl)-N-ethyl-1-methyl-1H-pyrazole-4-sulfonamide hydrochloride] |
| ≥ 6.00 | NC1CCc2ccc(OCCNS(=O)(=O)CCC3CC3)cc2C1Cc1ccc(Cl)c(Cl)c1 (stereo not shown) [Example 125, N-(2-{[7-Amino-8-(3,4-dichlorobenzyl)-5,6,7,8-tetrahydronaphthalen-2-yl]oxy}ethyl)-2-cyclopropylethanesulfonamide hydrochloride] |
| ≥ 8.00 | CN(CCOc1ccc2c(c1)C(Cc1ccc(Cl)c(Cl)c1)C(N1CCCC1)CC2)S(=O)(=O)CC1CC1 (stereo not shown) [Example 126, C-Cyclopropyl-N-{2-[8-(3,4-dichloro-benzyl)-7-pyrrolidin-1-yl-5,6,7,8-tetrahydronaphthalen-2-yloxy]-ethyl}-N-methyl-methanesulfonamide hydrochloride] |
| ≥ 7.00 | CN(CCOc1ccc2c(c1)C(Cc1ccccc1)C(N1CCCC1)CC2)S(=O)(=O)CC1CC1 (stereo not shown) [Example 127, N-(2-{[8-Benzyl-7-(pyrrolidin-1-yl)-5,6,7,8-tetrahydronaphthalen-2-yl]oxy}ethyl)-1-cyclopropyl-N-methylmethanesulfonamide hydrochloride] |
| ≥ 7.00 | NC1CCc2ccc(OCCNS(=O)(=O)CC3CC3)cc2C1Cc1ccc(Cl)cc1 (stereo not shown) [Example 128, N-(2-{[7-Amino-8-(4-chlorobenzyl)-5,6,7,8-tetrahydronaphthalen-2-yl]oxy}ethyl)-1-cyclopropylmethanesulfonamide hydrochloride] |
| ≥ 8.00 | CN(CCOc1ccc2c(c1)C(Cc1ccc(Cl)cc1)C(N)CC2)S(=O)(=O)CC1CC1 (stereo not shown) [Example 129, N-(2-{[7-Amino-8-(4-chlorobenzyl)-5,6,7,8-tetrahydronaphthalen-2-yl]oxy}ethyl)-1-cyclopropyl-N-methylmethanesulfonamide hydrochloride] |
| ≥ 8.00 | CN(CCOc1ccc2c(c1)C(Cc1ccccc1)C(N)CC2)S(=O)(=O)CC1CC1 (stereo not shown) [Example 130, N-[2-(7-Amino-8-benzyl-5,6,7,8-tetrahydro-naphthalen-2-yloxy)-ethyl]-C-cyclopropyl-Nmethyl-methanesulfonamide hydrochloride] |
| ≥ 7.00 | NC1CCc2ccc(OCCNS(=O)(=O)CC3CC3)cc2C1Cc1ccc(F)c(F)c1 (stereo not shown) [Example 131, N-(2-{[7-Amino-8-(3,4-difluorobenzyl)-5,6,7,8-tetrahydronaphthalen-2-yl]oxy}ethyl)-1-cyclopropylmethanesulfonamide hydrochloride] |
| ≥ 7.00 | O=S(=O)(CC1CC1)NCCOc1ccc2c(c1)C(Cc1ccc(Cl)c(Cl)c1)C(N1CCCC1)CC2 (stereo not shown) [Example 132, C-Cyclopropyl-N-{2-[8-(3,4-dichloro-benzyl)-7-pyrrolidin-1-yl-5,6,7,8-tetrahydronaphthalen-2-yloxy]-ethyl}-methanesulfonamide hydrochloride] |
| ≥ 7.00 | O=S(=O)(CC1CC1)NCCOc1ccc2c(c1)C(Cc1ccccc1)C(N1CCCC1)CC2 (stereo not shown) [Example 133, N-(2-{[8-Benzyl-7-(pyrrolidin-1-yl)-5,6,7,8-tetrahydronaphthalen-2-yl]oxy}ethyl)-1-cyclopropylmethanesulfonamide hydrochloride] |
| ≥ 6.00 | O=S(=O)(CC1CC1)NCCOc1ccc2c(c1)C(Cc1ccc(Cl)c(Cl)c1)C(N1CCC(F)C1)CC2 (stereo not shown) [Example 134, 1-Cyclopropyl-N-[2-({8-(3,4-dichlorobenzyl)-7-[3-fluoropyrrolidin-1-yl]-5,6,7,8-tetrahydronaphthalen-2-yl}oxy)ethyl]methanesulfonamide] |
| ≥ 7.00 | O=S(=O)(CC1CC1)NCCOc1ccc2c(c1)C(Cc1ccc(Cl)c(Cl)c1)C(N1CCC1)CC2 (stereo not shown) [Example 135, N-(2-{[7-(Azetidin-1-yl)-8-(3,4-dichlorobenzyl)-5,6,7,8-tetrahydronaphthalen-2-yl]oxy}ethyl)-1-cyclopropylmethanesulfonamide] |
| ≥ 7.00 | O=S(=O)(CC1CC1)NCCOc1ccc2c(c1)C(Cc1ccccc1)C(N1CCC(F)C1)CC2 (stereo not shown) [Example 136, N-[2-({8-Benzyl-7-[3-fluoropyrrolidin-1-yl]-5,6,7,8-tetrahydronaphthalen-2-yl}oxy)ethyl]-1-cyclopropylmethanesulfonamide hydrochloride] |
| ≥ 8.00 | CNC1CCc2ccc(OCCNS(=O)(=O)CC3CC3)cc2C1Cc1ccccc1 (stereo not shown) [Example 137, N-(2-{[8-Benzyl-7-(methylamino)-5,6,7,8-tetrahydronaphthalen-2-yl]oxy}ethyl)-1-cyclopropylmethanesulfonamide hydrochloride] |
| ≥ 8.00 | O=S(=O)(CC1CC1)NCCOc1ccc2c(c1)C(Cc1cccc(F)c1)C(N1CCCC1)CC2 (stereo not shown) [Example 138, 1-Cyclopropyl-N-(2-{[8-(3-fluorobenzyl)-7-(pyrrolidin-1-yl)-5,6,7,8-tetrahydronaphthalen-2-yl]oxy}ethyl)methanesulfonamide hydrochloride] |
| ≥ 8.00 | O=S(=O)(CC1CC1)NCCOc1ccc2c(c1)C(Cc1cccc(F)c1)C(N1CCC1)CC2 (stereo not shown) [Example 139, N-(2-{[7-(Azetidin-1-yl)-8-(3-fluorobenzyl)-5,6,7,8-tetrahydronaphthalen-2-yl]oxy}ethyl)-1-cyclopropylmethanesulfonamide hydrochloride] |
| ≥ 8.00 | Cn1cnc(S(=O)(=O)NCCOc2ccc3c(c2)C(Cc2cccc(F)c2)C(N2CCCC2)CC3)c1 (stereo not shown) [Example 140, N-(2-{[8-(3-Fluorobenzyl)-7-(pyrrolidin-1-yl)-5,6,7,8-tetrahydronaphthalen-2-yl]oxy}ethyl)-1-methyl-1H-imidazole-4-sulfonamide hydrochloride] |
| ≥ 8.00 | Cn1cnc(S(=O)(=O)NCCOc2ccc3c(c2)C(Cc2cccc(F)c2)C(N2CCC2)CC3)c1 (stereo not shown) [Example 141, N-(2-{[7-(Azetidin-1-yl)-8-(3-fluorobenzyl)-5,6,7,8-tetrahydronaphthalen-2-yl]oxy}ethyl)-1-methyl-1H-imidazole-4-sulfonamide hydrochloride] |
| ≥ 8.00 | Cn1cnc(S(=O)(=O)NCCOc2ccc3c(c2)C(Cc2ccccc2)C(N2CCC2)CC3)c1 (stereo not shown) [Example 145, N-(2-{[7-(Azetidin-1-yl)-8-benzyl-5,6,7,8-tetrahydronaphthalen-2-yl]oxy}ethyl)-1-methyl-1H-imidazole-4-sulfonamide] |
| ≥ 7.00 | O=S(=O)(NCCOc1ccc2c(c1)C(Cc1ccccc1)C(N1CCC1)CC2)C1CCC1 (stereo not shown) [Example 147, N-(2-{[7-(Azetidin-1-yl)-8-benzyl-5,6,7,8-tetrahydronaphthalen-2-yl]oxy}ethyl)cyclobutanesulfonamide] |
| ≥ 7.00 | CCCS(=O)(=O)NCCOc1ccc2c(c1)C(Cc1ccccc1)C(N1CCC1)CC2 (stereo not shown) [Example 148, Propane-1-sulfonic acid [2-(7-azetidin-1-yl-8-benzyl-5,6,7,8-tetrahydro-naphthalen-2-yloxy)-ethyl]-amide] |
| ≥ 7.00 | Cn1ccc(S(=O)(=O)NCCOc2ccc3c(c2)C(Cc2cccc(F)c2)C(N2CCCC2)CC3)c1 (stereo not shown) [Example 149, N-(2-{[8-(3-Fluorobenzyl)-7-(pyrrolidin-1-yl)-5,6,7,8-tetrahydronaphthalen-2-yl]oxy}ethyl)-1-methyl-1H-pyrrole-3-sulfonamide hydrochloride] |
